Where two headings read alike, the source gives them in different places.
Columns and labels:
[1] = Chemical stability (thermal, aqueous solution); assay type: physicochemical
From the text: Most of these compounds are relatively stable. […] Its chemical behaviour resembles that of known 2-oxazoline derivatives. […] The formation of the decomposition products can be monitored with ^1H-NMR by inspection at two regions δ 3.3-3.5 (appearance of two doublets) and 1.9-2.0 ppm (appearance of two additional singlets).
The expected decomposition pattern (when e.g., X is O and Y is N) involves opening of the oxazoline ring to form both amide and ester as shown in Scheme E, in which the quinuclidine-derived compounds are depicted illustratively. The formation of two new singlets at δ 1.9-2.0 ppm as expected for R = Me of these two structures are in agreement with this supposition. [drawing 32]
Ring opening is much faster in the presence of dilute hydrochloric acid. […] The tendency to decomposition of such salts complicates the optical separation of compounds such as AF125 and AF123. However, this problem can be overcome by using the method described for the optical separation of the enantiomers of AF125, or alternatively the amino-alcohols such as 3-aminomethylquinuclidin-3-ol can be resolved and the separated enantiomers can then be cyclized using an ester or imidate as already described. In yet another alternative the N-acyl derivatives of (e.g.) 3-aminomethylquinuclidin-3-ol can be resolved and the separated enantiomers can then be cyclized per se as shown in Scheme K: [drawing 33] […]

M1 muscarinic receptor = biological target: T1, M1 muscarinic receptor (Rattus norvegicus, UniProt P08482); assay: Displacement of 3H-QNB from rat cerebral cortex, 50 mM phosphate buffer; assay type: binding
T1 sequence (P08482 1-460): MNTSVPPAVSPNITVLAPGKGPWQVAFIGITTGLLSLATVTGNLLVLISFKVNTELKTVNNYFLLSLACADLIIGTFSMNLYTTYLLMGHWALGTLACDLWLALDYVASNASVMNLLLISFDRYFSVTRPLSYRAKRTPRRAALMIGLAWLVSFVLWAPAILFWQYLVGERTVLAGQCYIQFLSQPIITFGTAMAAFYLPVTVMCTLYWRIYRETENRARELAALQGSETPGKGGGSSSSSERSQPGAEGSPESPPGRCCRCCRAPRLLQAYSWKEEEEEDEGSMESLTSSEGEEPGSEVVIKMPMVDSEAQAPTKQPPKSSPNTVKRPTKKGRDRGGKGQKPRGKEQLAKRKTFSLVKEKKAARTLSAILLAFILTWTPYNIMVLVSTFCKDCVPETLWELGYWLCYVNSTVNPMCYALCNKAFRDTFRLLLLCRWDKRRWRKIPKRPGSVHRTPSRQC

AF64A-treated rats [2] = assay: 8-arm radial maze (RAM) with delay procedure in AF64A-treated rats, Part B; assay type: in vivo
Procedure: This animal model mimics the cholinergic hypofunction and cognitive dysfunction in SDAT (Fisher and Hanin, loc cit; Fisher et al, Neurosci. Lett. 102: 325-331, 1989); the method described in the latter publication was used here.
In brief, saline- and A64A-pretreated rats (3 nmole/2 µl./side, icv) were used in these experiments, 2.5 months after the lesion. The experiment was carried out over a three-week period. During the first week the rats were trained to find food pellets in all eight arms of the maze. After learning the task, the rats were trained using the delay procedure. During a predelay session, four of the arms of the maze were closed and the rats collected the food pellets from the remaining four opened arms. During this period working memory errors were recorded. Following a two hour delay, the rats were returned to the maze. All of the arms of the maze were now open but only four of them, those which were closed during the pre-delay session, were baited. The rats had to collect the food pellets without entering any previously visited arms, whether during the predelay or the post-delay session. After reaching a baseline level the rats were tested for their performance during the third week of the experiment in which either 10mM phosphate buffer (pH 7.3), or AF150 (0.07 or 1.0 mg./kg. free base dissolved in 10 mM phosphate buffer, pH 7.3), were administered i.p., immediately after the pre-delay session, once a day for five days.

AF64A-treated rats [3] = assay: Morris water maze (MWM) in AF64A-treated rats; assay type: in vivo; settings: i.p.
Procedure: This animal model, which mimics the cholinergic hypofunction and cognitive impairments in SDAT was used as described in Fisher et al (J. Pharmacol. Exptl. Therap, 1991, in the press).
Rats were injected with AF64A (3 nmole/2 µl./side, icv) or saline (2 µl., icv), in presence of phosphate buffer or AF151.

With `CC1=NCC2(CN3CCC2CC3)O1` (racemic) [AF125, 2-Methyl-spiro(1,3 oxazoline-5,3')quinuclidine] the thermal stability [1] was “thermally stable and can be distilled at 130° without decomposition”.

In the case of `CC1=NCC2(CCN(C)CC2)O1` [AF150, 2-Methyl-spiro(1,3-oxazoline-5,4')-1'-methylpiperidine], the “RATIOS c:a” value (M1 muscarinic receptor; KH2 cerebellum : KH1 cortex (3H-QNB)) is reported as 3.5, the “RATIOS b:a” value (M1 muscarinic receptor; KL1 : KH1 cortex (3H-QNB)) is reported as 49 and the “RATIOS d:b” value (M1 muscarinic receptor; KL2 cerebellum : KL1 cortex (3H-QNB)) is reported as 17. For the same compound, the “% H1” value (M1 muscarinic receptor; cortex, Table 5) was 13%, the “% L1” value (M1 muscarinic receptor; cortex, Table 5) was 87% and the “Working memory errors (session I)” value (AF64A-treated rats [2]; AF150 0.07 mg./kg., i.p. group, AF64A rats, week (pre)II, before treatment) was 3.33±1.18. For the same compound, the “Working memory errors (session I)” value (AF64A-treated rats [2]; AF150 0.07 mg./kg., i.p. group, Sal. rats, week (pre)II, before treatment) was 0.33±0.12, the “Working memory errors (session I)” value (AF64A-treated rats [2]; AF150 0.07 mg./kg., i.p., AF64A rats, week III) was 3.75±1.04 and the “Working memory errors (session I)” value (AF64A-treated rats [2]; AF150 0.07 mg./kg., i.p., Sal. rats, week III) was 0.18±0.07. The “Working memory errors (session I)” value (AF64A-treated rats [2]; AF150 1.0 mg./kg., i.p. group, AF64A rats, week (pre)II, before treatment) was 3.00±0.94, the “Working memory errors (session I)” value (AF64A-treated rats [2]; AF150 1.0 mg./kg., i.p. group, Sal. rats, week (pre)II, before treatment) was 0.11±0.05 and the “Working memory errors (session I)” value (AF64A-treated rats [2]; AF150 1.0 mg./kg., i.p., AF64A rats, week III) was 4.22±1.76. The “Working memory errors (session I)” value (AF64A-treated rats [2]; AF150 1.0 mg./kg., i.p., Sal. rats, week III) was 0.13±0.07, the “analgesia (tail pinch)” value (Mice, Male CD strain; 1 mg./kg. i.p., any time of observation) was “No analgesia” and the “analgesia (tail pinch)” value (Mice, Male CD strain; 5 mg./kg i.p., 15 minutes after injection) was “Partial analgesia”. For the same compound, the “analgesia (tail pinch)” value (Mice, Male CD strain; 10 mg./kg. i.p., 15 and 30 minutes) was “complete” and the “analgesia (tail pinch)” value (Mice, Male CD strain; 10 mg./kg. i.p., ≥ 60 minutes) was “no analgesia”.

In the case of `CC1=NC2(CCN(C)CC2)CO1` [AF151, 1-methylpiperidine-4-spiro-4'-(2'-methyl-1',3'-oxazoline)], the Path length (AF64A-treated rats [3]; icv AF64A, AF151 0.07 mg./kg., Block 1) is reported as 729.0± 98.2 cm, the Path length (AF64A-treated rats [3]; icv AF64A, AF151 0.07 mg./kg., Block 2) is reported as 918.1±124.3 cm and the Path length (AF64A-treated rats [3]; icv AF64A, AF151 0.07 mg./kg., Block 3) is reported as 743.1±151.1 cm. The Path length (AF64A-treated rats [3]; icv AF64A, AF151 0.07 mg./kg., Block 4) was 574.9±101.1 cm, the Path length (AF64A-treated rats [3]; icv AF64A, AF151 0.07 mg./kg., Reversal) was 602.9± 97.9 cm and the Path length (AF64A-treated rats [3]; icv AF64A, AF151 0.3 mg./kg., Block 1) was 862.3±151.0 cm. The Path length (AF64A-treated rats [3]; icv AF64A, AF151 0.3 mg./kg., Block 2) was 843.5±197.5 cm, the Path length (AF64A-treated rats [3]; icv AF64A, AF151 0.3 mg./kg., Block 3) was 539.9±146.2 cm and the Path length (AF64A-treated rats [3]; icv AF64A, AF151 0.3 mg./kg., Block 4) was 297.9± 60.4 cm. The Path length (AF64A-treated rats [3]; icv AF64A, AF151 0.3 mg./kg., Reversal) was 390.5± 77.0 cm, the Path length (AF64A-treated rats [3]; icv AF64A, AF151 1.0 mg./kg., Block 1) was 656.6±107.6 cm and the Path length (AF64A-treated rats [3]; icv AF64A, AF151 1.0 mg./kg., Block 2) was 802.7±111.1 cm. The Path length (AF64A-treated rats [3]; icv AF64A, AF151 1.0 mg./kg., Block 3) was 795.0±131.3 cm, the Path length (AF64A-treated rats [3]; icv AF64A, AF151 1.0 mg./kg., Block 4) was 434.4± 33.0 cm and the Path length (AF64A-treated rats [3]; icv AF64A, AF151 1.0 mg./kg., Reversal) was 606.0± 60.0 cm. For the same compound, the Path length (AF64A-treated rats [3]; icv Sal., AF151 0.07 mg./kg., Block 1) was 490.6± 74.0 cm, the Path length (AF64A-treated rats [3]; icv Sal., AF151 0.07 mg./kg., Block 2) was 562.9± 92.7 cm and the Path length (AF64A-treated rats [3]; icv Sal., AF151 0.07 mg./kg., Block 3) was 429.2± 76.5 cm. It also gave a Path length (AF64A-treated rats [3]; icv Sal., AF151 0.07 mg./kg., Block 4) of 278.0± 44.0 cm, a Path length (AF64A-treated rats [3]; icv Sal., AF151 0.07 mg./kg., Reversal) of 453.9± 76.0 cm and a Path length (AF64A-treated rats [3]; icv Sal., AF151 0.3 mg./kg., Block 1) of 517.8± 45.3 cm. For the same compound, the Path length (AF64A-treated rats [3]; icv Sal., AF151 0.3 mg./kg., Block 2) was 365.1± 58.4 cm, the Path length (AF64A-treated rats [3]; icv Sal., AF151 0.3 mg./kg., Block 3) was 424.6± 92.3 cm and the Path length (AF64A-treated rats [3]; icv Sal., AF151 0.3 mg./kg., Block 4) was 346.7± 64.4 cm. For the same compound, the Path length (AF64A-treated rats [3]; icv Sal., AF151 0.3 mg./kg., Reversal) was 306.8± 43.3 cm, the Path length (AF64A-treated rats [3]; icv Sal., AF151 1.0 mg./kg., Block 1) was 607.4± 90.6 cm and the Path length (AF64A-treated rats [3]; icv Sal., AF151 1.0 mg./kg., Block 2) was 440.2± 90.1 cm. It also gave a Path length (AF64A-treated rats [3]; icv Sal., AF151 1.0 mg./kg., Block 3) of 408.1± 97.1 cm, a Path length (AF64A-treated rats [3]; icv Sal., AF151 1.0 mg./kg., Block 4) of 233.8± 30.6 cm and a Path length (AF64A-treated rats [3]; icv Sal., AF151 1.0 mg./kg., Reversal) of 450.0± 93.5 cm.

Source: EP0452101B1, “Spiro bridged and unbridged heterocyclic compounds” (ISRAEL INSTITUTE FOR BIOLOGICAL RESEARCH, priority 1990, dated 1991)
